Reference: ChEMBL document CHEMBL5385844, “Discovery of novel imidazole chemotypes as isoform-selective JNK3 inhibitors for the treatment of Alzheimer's disease” (Eur J Med Chem, 2023)
Activity calls are given as the source filed them. No cut-off for these calls is given here.

What was measured:
[1] = Permeability of the compound by PAMPA-BBB assay; type: ADME; details: read-out: permeability
[2] = biological target: Mitogen-activated protein kinase 10 (Rattus norvegicus) (UniProt P49187); assay: Inhibition of JNK3 in Amyloid beta (1 to 42)-induced c-Jun phosphorylation in primary rat cortex neuron assessed as decrease in c-Jun phosphorylation incubated for 24 hrs by Western blot analysis; type: cell-based; details: Primary cortical neuron, dose 10-20 µM
[3] = biological target: Mitogen-activated protein kinase 10 (Rattus norvegicus) (UniProt P49187); assay: Inhibition of JNK3 in anisomycin-induced c-Jun phosphorylation in primary rat cortex neuron assessed as decrease in c-Jun phosphorylation at 20 uM pretreated for 90 mins followed by treated with anisomycin further incubated for 40 mins by Western blot analysis; type: cell-based; details: Primary cortical neuron
[4] = Apparent permeability across apical to basolateral side in human Caco-2 cells at 10 uM incubated for 1 hr by LC-MS/MS analysis; type: ADME, cell-based
[5] = tested on: Mus musculus; assay: Anti-alzheimer activity against homozygous 3 x Tg mouse model assessed as time spent in platform quadrant at 60 mg/kg, po administered daily for 2 months and measured after 27 days of treatment by Morris water maze test (reference value: 15.68 +/- 1.65 sec); type: functional; details: 1460 h
[6] = tested on: Mus musculus; assay: Anti-alzheimer activity against homozygous 3 x Tg mouse model assessed as time spent in platform quadrant at 30 mg/kg, po administered daily for 2 months and measured after 27 days of treatment by Morris water maze test (reference value: 15.68 +/- 1.65 sec); type: functional; details: 1460 h
[7] = tested on: Mus musculus; assay: Anti-alzheimer activity against homozygous 3 x Tg mouse model assessed as escape latency time at 30 mg/kg, po administered daily for 2 months and measured after 60 days of treatment by Passive avoidance test (reference value: 43.44 +/- 7.35 sec); type: functional; details: 1460 h
[8] = tested on: Mus musculus; assay: Anti-alzheimer activity against homozygous 3 x Tg mouse model assessed as spontaneous alteration at 60 mg/kg, po administered daily for 2 month and measured after 57 days of treatment by Y-maze test (reference value: 46.81 +/- 2.76%); type: functional; details: time 2 months, 1460 h
[9] = Toxicity in APP/PS1 mouse assessed as dead animal at 30 mg/kg, po treated 3 times/week for 1 month; type: organism-based; details: in vivo, 730 h, time 1 months
[10] = Plasma concentration in Sprague-Dawley rat at 30 mg/kg, po measured at Tmax; type: ADME, organism-based
[11] = tested on: Mus musculus; assay: Anti-alzheimer activity against APP/PS1 dE9 double transgenic mouse model assessed as spontaneous alteration at 30 mg/kg, po administered 3 times/week for 1 month and measured after 27 days of treatment by Y-maze test (reference value: 46.70 +/- 3.32%); type: functional; details: time 1 months, 730 h
[12] = Toxicity in APP/PS1 mouse assessed as abnormal symptoms at 10 mg/kg, po treated 3 times/week for 1 month; type: organism-based; details: in vivo, 730 h, time 1 months
[13] = Toxicity in APP/PS1 mouse assessed as dead animal at 10 mg/kg, po treated 3 times/week for 1 month; type: organism-based; details: in vivo, 730 h, time 1 months
[14] = Half life in Sprague-Dawley rat at 3 mg/kg, po measured upto 24 hrs by UPLC analysis; type: ADME, organism-based; details: in vivo
[15] = Half life in Sprague-Dawley rat at 1 mg/kg, iv measured upto 24 hrs by UPLC analysis; type: ADME, organism-based; details: in vivo
[16] = Tmax in Sprague-Dawley rat at 3 mg/kg, po measured upto 24 hrs by UPLC analysis; type: ADME, organism-based; details: in vivo
[17] = tested on: Cortical neurone; assay: Neuroprotective activity against Amyloid beta (1 to 42)-induced toxicity in rat cortical neuron assessed as cell viability at 20 uM measured after 24 hrs by MTT assay; type: functional; details: read-out: Activity
[18] = biological target: Mitogen-activated protein kinase 10 (Homo sapiens, UniProt P53779); assay: Inhibition of human JNK3 incubated for 40 mins in presence of ATP and [gamma33P-ATP] by scintillation counting method; details: read-out: IC50
[19] = biological target: T1, Mitogen-activated protein kinase 9 (Homo sapiens, UniProt P45984); assay: Inhibition of human JNK2 incubated for 40 mins in presence of ATP and [gamma33P-ATP] by scintillation counting method
[20] = biological target: T2, MAPK/MAK/MRK overlapping kinase (Homo sapiens, UniProt Q9UQ07); assay: Inhibition of MOK (unknown origin) assessed as incorporation of 33P-ATP
T2 sequence (Q9UQ07 whole entry): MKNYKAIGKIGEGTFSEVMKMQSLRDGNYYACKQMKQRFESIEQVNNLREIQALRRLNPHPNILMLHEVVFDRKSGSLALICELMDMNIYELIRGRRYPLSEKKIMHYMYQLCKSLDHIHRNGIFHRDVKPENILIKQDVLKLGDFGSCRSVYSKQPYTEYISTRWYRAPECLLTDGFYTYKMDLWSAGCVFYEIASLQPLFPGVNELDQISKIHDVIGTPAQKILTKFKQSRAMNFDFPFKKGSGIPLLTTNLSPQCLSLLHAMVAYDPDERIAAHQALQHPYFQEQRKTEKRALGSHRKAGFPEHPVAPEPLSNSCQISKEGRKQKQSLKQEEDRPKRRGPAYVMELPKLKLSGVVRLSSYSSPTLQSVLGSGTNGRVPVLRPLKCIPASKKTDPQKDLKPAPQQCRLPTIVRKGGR

[21] = biological target: T1, Mitogen-activated protein kinase 9; assay: Inhibition of human JNK2alpha1 assessed as incorporation of 33P-ATP
[22] = tested on: Cortical neurone; assay: Neuroprotective activity against Amyloid beta (1 to 42)-induced toxicity in rat cortical neuron assessed as cell viability measured after 24 to 48 hrs by MTT assay; type: functional, cell-based; details: time 24-48 hrs

Mitogen-activated protein kinase 10 (Rattus norvegicus), sequence (P49187 whole entry): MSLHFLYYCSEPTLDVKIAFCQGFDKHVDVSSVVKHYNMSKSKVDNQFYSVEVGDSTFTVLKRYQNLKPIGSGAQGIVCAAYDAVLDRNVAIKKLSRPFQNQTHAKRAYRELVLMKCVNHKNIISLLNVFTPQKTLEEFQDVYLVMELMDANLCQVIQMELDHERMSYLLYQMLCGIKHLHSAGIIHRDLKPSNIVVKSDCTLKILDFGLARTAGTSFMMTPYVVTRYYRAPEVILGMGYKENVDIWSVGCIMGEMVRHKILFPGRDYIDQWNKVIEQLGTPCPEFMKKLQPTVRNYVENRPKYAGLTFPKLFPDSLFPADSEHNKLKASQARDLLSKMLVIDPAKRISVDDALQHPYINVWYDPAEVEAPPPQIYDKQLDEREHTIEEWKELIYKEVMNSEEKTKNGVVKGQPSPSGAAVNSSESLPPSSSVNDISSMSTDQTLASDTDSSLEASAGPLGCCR
T1 sequence (P45984 whole entry): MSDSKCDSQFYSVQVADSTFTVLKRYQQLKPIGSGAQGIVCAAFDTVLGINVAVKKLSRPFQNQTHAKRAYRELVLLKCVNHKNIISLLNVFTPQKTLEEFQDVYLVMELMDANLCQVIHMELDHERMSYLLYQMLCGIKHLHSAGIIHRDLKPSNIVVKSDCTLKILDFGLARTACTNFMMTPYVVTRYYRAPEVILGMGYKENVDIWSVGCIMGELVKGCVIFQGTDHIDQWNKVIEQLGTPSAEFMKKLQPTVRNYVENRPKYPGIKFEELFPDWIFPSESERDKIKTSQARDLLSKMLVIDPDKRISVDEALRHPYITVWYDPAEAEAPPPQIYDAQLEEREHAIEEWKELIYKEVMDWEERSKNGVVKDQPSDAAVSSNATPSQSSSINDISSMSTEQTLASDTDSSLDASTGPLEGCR
Mitogen-activated protein kinase 10, sequence (P53779 whole entry): as the sequence (P49187 whole entry) above, with H27Q, S32Y, V33I, V34A counted along it

Question: With N#CCc1cnc(-c2ccc3ccccc3c2)n1-c1ccnc(N[C@H]2CCCN(C(=O)C3CC3)C2)n1 as the compound, how does the Papp [1] read?
Answer: 28.5 ×10⁻⁶ cm/s

Question: And the Activity [2]?
Answer: Dose-Dependent Effect

Question: And the Activity [3]?
Answer: Active

Question: And the Papp A→B at 1 h, 10 µM [4]?
Answer: 13.7 ×10⁻⁶ cm/s

Question: And the Time [5]?
Answer: 15.55 s

Question: And the Time [6]?
Answer: 13.24 s

Question: What about the Time [7] of the same compound?
Answer: 54.09 s

Question: And the Activity [8]?
Answer: 56.55%

Question: What about the Activity [9] of the same compound?
Answer: Non-Toxic

Question: What about the Cmax [10] of the same compound?
Answer: 1080 ng/mL

Question: And the Activity [11]?
Answer: 56.12%

Question: What about the Activity [12] of the same compound?
Answer: Non-Toxic

Question: What about the Activity [13] of the same compound?
Answer: Non-Toxic

Question: And the half-life [14]?
Answer: 20.4 min

Question: What about the half-life [15] of the same compound?
Answer: 13.2 min

Question: What about the Tmax [16] of the same compound?
Answer: 37.8 min

Question: And the viability at 20 µM [17]?
Answer: 72.6%

Question: And the IC50 [18]?
Answer: 1 nM

Question: And the IC50 [19]?
Answer: 144 nM

Question: And the IC50 [20]?
Answer: 1180 nM

Question: What about the IC50 [21] of the same compound?
Answer: 340 nM

Question: And the Activity [22]?
Answer: Dose-Dependent Effect
